Reference: paper PMC8273159, “In Vivo Behavior of the Antibacterial Peptide Cyclo[RRRWFW], Explored Using a 3-Hydroxychromone-Derived Fluorescent Amino Acid” (Frontiers in Chemistry, 2021)
Converted amounts (≈) assume the structure as drawn. Numbered stars: 1 amine (or outer) side, 2 acyl side, 3 side chain; on linkers, the order of the positions; unused ones are H or OH. Square brackets hold non-standard residues; d marks the D form. Peptide text beside a SMILES is read from it. X1 = O=C([C@H](Cc1ccc2oc(-c3ccco3)c(O)c(=O)c2c1)N[*:1])[*:2]

What was measured:
[1] = test system: Bacillus spizizenii (DSM 347); format: cell-based; conditions: DSM 347, 20 h
Protocol: (§1) Bacillus spizizenii (DSM 347) and Escherichia coli (DSM 1116) were purchased from the German Collection of Microorganisms and Cell Cultures. The bacterial strains were maintained frozen at −80°C using a bacterial Cryobank System (Mast Diagnostica). To refresh bacterial cells on single glass beads, they were grown overnight in Müller-Hinton (MH) medium, and colonies were obtained by streaking on MH agar. Then, colony cells were used to inoculate MH broth up to OD = 0.02 and grew at 37°C overnight. These overnight cultures were used to inoculate the test culture, which was grown for 3–4 h until it reached exponential growth. HeLa (ECACC 93021013) and HEK293 (ECACC 85120602) cells were purchased from […] and were routinely cultured in Roswell Park Memorial Institute (RPMI) 1640 medium or Dulbecco’s modified Eagle medium (DMEM) supplemented with 10% fetal calf serum (FCS) and 1% penicillin/streptomycin, respectively. Cells were passaged every 2–3 days and used until passage 35. All animal cell types were cultured at 37 °C in a 5% CO2 atmosphere and tested negative for mycoplasma.
(§2) The bacteriostatic activity of the peptides was characterized by determining minimal culture growth inhibitory concentrations (MICs) in planktonic cultures. Serial twofold dilutions of each peptide (in-well concentration range: 128 μg/ml to […]) were prepared in MH broth and aliquoted into round-bottom 96-well microtiter plates (Sarstedt). Each well was inoculated with a standardized inoculum to achieve a final test concentration of approximately 10^6 cells/ml. […] The measurements were repeated twice with three replicates each time.

[2] = test system: Escherichia coli (DSM 1116); format: cell-based; conditions: DSM 1116, 20 h
Protocol: as §1, §2

[3] = test system: human erythrocyte suspension; assay: Hemolysis assay (hemoglobin release); format: cell-based; conditions: Tris-HCl pH 7.6, 37°C, 30 min
Excerpt: All chemicals were purchased from Sigma-Aldrich, Iris Biotech or Biosolve and were used without further purification. Ultrapure deionized (MilliQ, Millipore) water was used to prepare aqueous solutions and mixtures. Solvents for peptide purification and optical spectroscopy were of HPLC grade and were degassed before use. Culture media and supplements for animal cells were from Thermo Fisher, those for bacterial culturing were from Becton, and those for zebrafish embryo handling were freshly prepared. Citrate phosphate dextrose-stabilized blood bags with erythrocyte suspensions of healthy donors for hemolysis assays were obtained from the blood bank of the Karlsruhe municipal hospital.
Hemolytic activity was examined using the same serial twofold dilution concentrations as for the MIC assay. […] The tubes were centrifuged at 13,000 rpm for 10 min to pellet the cells, and the absorbance at 540 nm was recorded against a negative control (cells without peptide, accounting for autohaemolysis). The lysis percentage was calculated relative to lysis levels induced by 1% (v/v) Triton X-100. The absorbance measurements were repeated five times, and the averaged values were used.

[4] = Analytical C18 HPLC retention time as measure of overall hydrophobicity; format: physicochemical; conditions: chromatographic, C18 phase (Vydac), water/acetonitrile with 0.1% TFA, 1% B/min gradient, column 40°C; used to assess overall hydrophobicity
Protocol: The peptides were purified (>95%) by reversed-phase high-performance liquid chromatography (HPLC) employing C18 stationary phase columns (Vydac) and TFA-supplemented (0.1% v/v) water/acetonitrile gradients (4% eluent B/min) without temperature control on a Jasco HPLC system equipped with a diode array detector. Analytical chromatography was performed using the same stationary/mobile phase conditions, employing temperature control (column temperature 40°C) and shallower gradients (1% eluent B/min). All peptides and individual HPLC fractions were characterized by matrix-assisted laser desorption/ionization time-of-flight mass spectrometry (MALDI-TOF MS) using a Bruker Autoflex III instrument in positive reflector detection mode and with α-cyano-4-hydroxycinnamic acid as a matrix. From pure peptide powders, stock solutions were prepared (1 mg/ml) in 30% aqueous acetonitrile and stored at −80°C. For spectroscopy, imaging and bioactivity measurements, aliquots from these solutions were taken a day before the experiment, and peptide samples containing the necessary amount of peptide dry material were obtained by lyophilization overnight.

Row | MIC B. spizizenii [1] | MIC E. coli [2] | RT (apparent retention time) [4] | Compound | death of erythrocytes (hemolysis) ([3]; 30 µM peptide, absorbance 540 nm, relative to 1% Triton X-100, five readings averaged) | hemolytic activity, comparison in words ([3]; human erythrocytes, relative to 1% Triton X-100)
1 | 14.6 µM (≈ 16 µg/mL) | 29.1 µM (≈ 32 µg/mL) | – | N=C(N)NCCC[C@@H]1NC(=O)[C@H](CCCNC(=N)N)NC(=O)[C@H](Cc2c[nH]c3ccccc23)NC(=O)[C@H](Cc2ccccc2)NC(=O)[C@H](Cc2ccc3oc(-c4ccco4)c(O)c(=O)c3c2)NC(=O)[C@H](CCCNC(=N)N)NC1=O [cRW-W^1/FHC] (cyclo(FWRRR[X1])) | – | –
2 | 14.6 µM (≈ 16 µg/mL) | 29.1 µM (≈ 32 µg/mL) | 11 min | N=C(N)NCCC[C@@H]1NC(=O)[C@H](CCCNC(=N)N)NC(=O)[C@H](Cc2ccc3oc(-c4ccco4)c(O)c(=O)c3c2)NC(=O)[C@H](Cc2ccccc2)NC(=O)[C@H](Cc2c[nH]c3ccccc23)NC(=O)[C@H](CCCNC(=N)N)NC1=O [cRW-W^3/FHC] (cyclo(F[X1]RRRW)) | – | –
3 | 4.0 µM (≈ 3.95 µg/mL) | 8.1 µM (≈ 8 µg/mL) | 9 min | N=C(N)NCCC[C@@H]1NC(=O)[C@H](CCCNC(=N)N)NC(=O)[C@H](Cc2c[nH]c3ccccc23)NC(=O)[C@H](Cc2ccccc2)NC(=O)[C@H](Cc2c[nH]c3ccccc23)NC(=O)[C@H](CCCNC(=N)N)NC1=O [cWFW, cyclo[RRRWFW]] (cyclo(FWRRRW)) | – | –

Row | Compound | MIC B. spizizenii [1] | MIC E. coli [2] | RT (apparent retention time) [4] | death of erythrocytes (hemolysis) ([3]; 30 µM peptide, absorbance 540 nm, relative to 1% Triton X-100, five readings averaged) | hemolytic activity, comparison in words ([3]; human erythrocytes, relative to 1% Triton X-100)
4 | N=C(N)NCCC[C@@H]1NC(=O)[C@H](CCCNC(=N)N)NC(=O)[C@H](Cc2c[nH]c3ccccc23)NC(=O)[C@H](Cc2ccc3oc(-c4ccco4)c(O)c(=O)c3c2)NC(=O)[C@H](Cc2c[nH]c3ccccc23)NC(=O)[C@H](CCCNC(=N)N)NC1=O [cRW-F^2/FHC] (cyclo(RRRW[X1]W)) | 14.0 µM (≈ 15.9 µg/mL) | 28.1 µM (≈ 32 µg/mL) | – | > 50% | the most hemolytic
